Data: patent US6444617B1, “Fused-heterocycle dicarboxylic acid diamide derivatives or salts thereof, herbicide and usage thereof” (Nihon Nohyaku Co., Ltd., priority 1998, dated 2002)

Experiments:
Type in all cases: in vivo
[1] = tested on: cleavers (Galium aparine L.), Ga; assay: Test Example 3: herbicidal effect on upland weeds before emergence; details: dosage 5 kg/ha
In short: (§1)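 Read-out is the weed-killing rate, scored fourteen days after a single spray application made before the weeds emerged. The spray was a liquid agent carrying the active compound at a prescribed dose.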

[2] = tested on: barnyard grass (Echinochloa crus-galli Beauv.), Ec; assay: as above; details: dosage 5 kg/ha
In short: as §1

[3] = tested on: forxtail grass (Alopecurus aequalis var. amurensis Ohwi), Am; assay: as above; details: foxtail grass, dosage 5 kg/ha
In short: as §1

[4] = tested on: velvetleaf (Abutilon theophtasti L.), At; assay: as above; details: dosage 5 kg/ha
In short: as §1

[5] = tested on: cocklebur (Xanthium strumarium L.), Xs; assay: as above; details: dosage 5 kg/ha
In short: as §1

[6] = tested on: bird's eye speedwell (Veronica persica Poir.), Vp; assay: as above; details: dosage 5 kg/ha
In short: as §1

wheat = assay: Test Example 4: phytotoxicity to upland crop plants, treatment after emergence; details: dosage 5 kg/ha, sprayed after emergence, judged 14 days after treatment
In short: (§2)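 Post-emergence foliar spray, compound at prescribed concentration, applied at defined leaf stages; weeds plus soybean/wheat grown in soil vats. Read-out: weed-killing rate and crop injury, 14 d post-treatment.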

soybean plant = assay: as above; details: dosage 5 kg/ha, sprayed after emergence, judged 14 days after treatment
In short: as §2

[7] = tested on: cleavers (Galium aparine L.), Ga; assay: Test Example 4: herbicidal effect on upland weeds after emergence; details: dosage 5 kg/ha; sprayed after emergence; judged 14 days after treatment
In short: (§3)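 Weeds, soybean and wheat were sown in soil-filled vats, covered with soil and grown to set leaf stages before a post-emergence spray of an agent containing the compound at a prescribed concentration. Weed-killing rate and crop phytotoxicity were assessed 14 days after treatment.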

[8] = tested on: barnyard grass (Echinochloa crus-galli Beauv.), Ec; assay: as above; details: dosage 5 kg/ha; sprayed after emergence; judged 14 days after treatment
In short: as §3

[9] = tested on: forxtail grass (Alopecurus aequalis var. amurensis Ohwi), Am; assay: as above; details: dosage 5 kg/ha; sprayed after emergence; judged 14 days after treatment
In short: as §3

[10] = tested on: velvetleaf (Abutilon theophtasti L.), At; assay: as above; details: dosage 5 kg/ha; sprayed after emergence; judged 14 days after treatment
In short: as §3

[11] = tested on: cocklebur (Xanthium strumarium L.), Xs; assay: as above; details: dosage 5 kg/ha; sprayed after emergence; judged 14 days after treatment
In short: as §3

[12] = tested on: bird's eye speedwell (Veronica persica Poir.), Vp; assay: as above; details: dosage 5 kg/ha; sprayed after emergence; judged 14 days after treatment
In short: as §3

soybean plant (So) = assay: Test Example 3: phytotoxicity to upland crop plants, treatment before emergence; details: dosage 5 kg/ha
In short: (§4)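 Pre-emergence treatment: a liquid preparation containing a prescribed concentration of test compound was sprayed, and injury to soybean and wheat was assessed 14 days later. Phytotoxicity was judged against a scoring criterion, alongside weed-killing rate.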

wheat (Wh) = assay: as above; details: dosage 5 kg/ha
In short: as §4

[13] = tested on: bulrush (Scirpus juncoides Roxb.); assay: Test Example 1: herbicidal effect on paddy field weeds before emergence; details: Dosage 5 kg/ha
In short: (§5)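 Seeds of both weeds, still ungerminated, in soil pots held under paddy conditions received a set dose of test solution as soil treatment. After twenty-one days, control relative to untreated pots was calculated and rated on a scoring scale.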

[14] = tested on: barnyard grass (Echinochloa crus-galli Beauv.); assay: as above; details: Dosage 5 kg/ha
In short: as §5

[15] = tested on: bulrush (Scirpus juncoides Roxb.); assay: Test Example 2: herbicidal effect on paddy field weeds after emergence; details: Dosage 5 kg/ha; one-leaved stage; 21 days after treatment
In short: (§6)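 Weeds in flooded paddy-soil pots were grown to the one-leaved stage, then the soil was treated with the compound solution at a set dosage.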

[16] = tested on: barnyard grass (Echinochloa crus-galli Beauv.); assay: as above; details: Dosage 5 kg/ha; one-leaved stage; 21 days after treatment
In short: as §6

[17] = tested on: monochoria (Monochoria vaginalis Presl); assay: as above; details: Dosage 5 kg/ha; one-leaved stage; 21 days after treatment
In short: as §6

SMILES	Herbicidal effect Ga [1]	Herbicidal effect Ec [2]	Herbicidal effect Am [3]	Herbicidal effect At [4]	Herbicidal effect Xs [5]	Herbicidal effect Vp [6]	Phytotoxicity Wh (wheat)	Phytotoxicity So (soybean plant)	Herbicidal effect Ga [7]	Herbicidal effect Ec [8]	Herbicidal effect Am [9]	Herbicidal effect At [10]	Herbicidal effect Xs [11]	Herbicidal effect Vp [12]	Phytotoxicity So (soybean plant (So))	Phytotoxicity Wh (wheat (Wh))	Pre-emergence treatment Bulrush (herbicidal effect) [13]	Pre-emergence treatment Barnyard grass (herbicidal effect) [14]	Post-emergence treatment Bulrush (herbicidal effect) [15]	Post-emergence treatment Barnyard grass (herbicidal effect) [16]	further results
CCc1ccc(Cl)c(CC)c1NC(=O)c1nc2ccccc2nc1C(=O)NCC(C)C [compound 1311]	5 (Weed-killing rate is 100%.)	5 (Weed-killing rate is 100%.)	5 (Weed-killing rate is 100%.)	5 (Weed-killing rate is 100%.)	5 (Weed-killing rate is 100%.)	5 (Weed-killing rate is 100%.)	5 (Crop-killing rate is 100%.)	5 (Crop-killing rate is 100%.)	5 (Weed-killing rate is 100%.)	5 (Weed-killing rate is 100%.)	5 (Weed-killing rate is 100%.)	5 (Weed-killing rate is 100%.)	5 (Weed-killing rate is 100%.)	5 (Weed-killing rate is 100%.)	5 (Crop-killing rate is 100%.)	5 (Crop-killing rate is 100%.)	5 (Weed-killing rate is 100%.)	5 (Weed-killing rate is 100%.)	5 (Weed-killing rate is 100%.)	5 (Weed-killing rate is 100%.)	Post-emergence treatment Monochoria (herbicidal effect) [17]: 5 (Weed-killing rate is 100%.)
CCc1ccc(Cl)c(CC)c1NC(=O)c1nc2ccccc2nc1C(=O)NCC(C)(C)C [compound 1314]	4 (Weed-killing rate is 90-99%.)	5 (Weed-killing rate is 100%.)	5 (Weed-killing rate is 100%.)	5 (Weed-killing rate is 100%.)	4 (Weed-killing rate is 90-99%.)	5 (Weed-killing rate is 100%.)	4 (Crop-killing rate is 90-99%.)	4 (Crop-killing rate is 90-99%.)	4 (Weed-killing rate is 90-99%.)	5 (Weed-killing rate is 100%.)	5 (Weed-killing rate is 100%.)	5 (Weed-killing rate is 100%.)	4 (Weed-killing rate is 90-99%.)	5 (Weed-killing rate is 100%.)	3 (Crop-killing rate is 70-89%.)	4 (Crop-killing rate is 90-99%.)	5 (Weed-killing rate is 100%.)	5 (Weed-killing rate is 100%.)	4 (Weed-killing rate is 90-99%.)	4 (Weed-killing rate is 90-99%.)	Post-emergence treatment Monochoria (herbicidal effect) [17]: 5 (Weed-killing rate is 100%.)
CCc1ccc(Cl)c(CC)c1NC(=O)c1nc2ccccc2nc1C(=O)NC1CCCC1 [compound 1315]	5 (Weed-killing rate is 100%.)	5 (Weed-killing rate is 100%.)	5 (Weed-killing rate is 100%.)	5 (Weed-killing rate is 100%.)	5 (Weed-killing rate is 100%.)	5 (Weed-killing rate is 100%.)	5 (Crop-killing rate is 100%.)	5 (Crop-killing rate is 100%.)	5 (Weed-killing rate is 100%.)	5 (Weed-killing rate is 100%.)	5 (Weed-killing rate is 100%.)	5 (Weed-killing rate is 100%.)	5 (Weed-killing rate is 100%.)	5 (Weed-killing rate is 100%.)	5 (Crop-killing rate is 100%.)	5 (Crop-killing rate is 100%.)	5 (Weed-killing rate is 100%.)	5 (Weed-killing rate is 100%.)	5 (Weed-killing rate is 100%.)	5 (Weed-killing rate is 100%.)	Post-emergence treatment Monochoria (herbicidal effect) [17]: 5 (Weed-killing rate is 100%.)
CCCNC(=O)c1nc2ccccc2nc1C(=O)Nc1cccc(Cl)c1C [compound 1318]	4 (Weed-killing rate is 90-99%.)	5 (Weed-killing rate is 100%.)	5 (Weed-killing rate is 100%.)	5 (Weed-killing rate is 100%.)	4 (Weed-killing rate is 90-99%.)	5 (Weed-killing rate is 100%.)	4 (Crop-killing rate is 90-99%.)	3 (Crop-killing rate is 70-89%.)	5 (Weed-killing rate is 100%.)	5 (Weed-killing rate is 100%.)	5 (Weed-killing rate is 100%.)	5 (Weed-killing rate is 100%.)	4 (Weed-killing rate is 90-99%.)	5 (Weed-killing rate is 100%.)	3 (Crop-killing rate is 70-89%.)	5 (Crop-killing rate is 100%.)	4 (Weed-killing rate is 90-99%.)	5 (Weed-killing rate is 100%.)	4 (Weed-killing rate is 90-99%.)	4 (Weed-killing rate is 90-99%.)	Post-emergence treatment Monochoria (herbicidal effect) [17]: 5 (Weed-killing rate is 100%.)
Cc1c(Cl)cccc1NC(=O)c1nc2ccccc2nc1C(=O)NC1CCCC1 [compound 1327]	4 (Weed-killing rate is 90-99%.)	5 (Weed-killing rate is 100%.)	5 (Weed-killing rate is 100%.)	5 (Weed-killing rate is 100%.)	4 (Weed-killing rate is 90-99%.)	5 (Weed-killing rate is 100%.)	4 (Crop-killing rate is 90-99%.)	3 (Crop-killing rate is 70-89%.)	5 (Weed-killing rate is 100%.)	5 (Weed-killing rate is 100%.)	5 (Weed-killing rate is 100%.)	5 (Weed-killing rate is 100%.)	4 (Weed-killing rate is 90-99%.)	5 (Weed-killing rate is 100%.)	3 (Crop-killing rate is 70-89%.)	5 (Crop-killing rate is 100%.)	4 (Weed-killing rate is 90-99%.)	5 (Weed-killing rate is 100%.)	4 (Weed-killing rate is 90-99%.)	4 (Weed-killing rate is 90-99%.)	Post-emergence treatment Monochoria (herbicidal effect) [17]: 5 (Weed-killing rate is 100%.)
